The test system of data set [1] is Mus musculus. Description: Antinociceptive activity in ICR mouse model of chronic constriction injury-induced neuropathic pain assessed as inhibition of mechanical allodynia at 10 umol/kg, ip administered 7 days post-surgery and measured after 1 hr post-dose by Von Frey assay relative to control. It counts as functional.
In data set [2] the test system is Mus musculus. The data set can be described thus: Antinociceptive activity in ICR mouse model of chronic constriction injury-induced neuropathic pain assessed as inhibition of mechanical allodynia at 10 umol/kg, ip administered 7 days post-surgery and measured after 0.5 hrs post-dose by Von Frey assay relative to control. The data set is classed as functional.
The test system of data set [3] is Mus musculus. The data set can be described thus: Antinociceptive activity in ICR mouse model of chronic constriction injury-induced neuropathic pain assessed as inhibition of mechanical allodynia at 10 umol/kg, ip administered 7 days post-surgery and measured after 3 hrs post-dose by Von Frey assay relative to control. It counts as functional.
Data set [4] relates to Mus musculus. The data set can be described thus: Effect on nociception on contralateral paw in ICR mouse model of chronic constriction injury-induced neuropathic pain assessed as paw withdrawal threshold at 10 umol/kg, ip administered 7 days post-surgery and measured after 30 mins to 3 hrs post-dose by Von Frey assay. The conditions noted are these: in vivo. It counts as organism-based.

Data set [5] relates to Mus musculus. Description: Protection ratio of antinociceptive activity in ICR mouse model of chronic constriction injury-induced neuropathic pain assessed as inhibition of mechanical allodynia at 10 umol/kg, ip administered 7 days post-surgery and measured after 3 hrs to 1 hrs post-dose by Von Frey assay. The data set is classed as functional.
Data set [6] relates to Mus musculus. The data set can be described thus: Antinociceptive activity in ICR mouse model of chronic constriction injury-induced neuropathic pain assessed as inhibition of mechanical allodynia at 10 umol/kg, ip administered 7 days post-surgery and measured after 5 hrs post-dose by Von Frey assay relative to control. It counts as functional.
Data set [7] has as its system Mus musculus. Description: Antinociceptive activity in ICR mouse model of chronic constriction injury-induced neuropathic pain assessed as inhibition of mechanical allodynia at 10 umol/kg, ip administered 7 days post-surgery and measured after 2 hrs post-dose by Von Frey assay relative to control. It counts as functional.
The test system of data set [8] is Mus musculus. Description: Antinociceptive activity in ICR mouse model of chronic constriction injury-induced neuropathic pain assessed as inhibition of mechanical allodynia at 1 umol/kg, ip administered 7 days post-surgery and measured after 1 hr post-dose by Von Frey assay relative to control. The data set is classed as functional.
The test system of data set [9] is Mus musculus. Description: Antinociceptive activity in ICR mouse model of chronic constriction injury-induced neuropathic pain assessed as inhibition of mechanical allodynia at 1 umol/kg, ip administered 7 days post-surgery and measured after 5 hrs post-dose by Von Frey assay relative to control. The data set is classed as functional.
The test system of data set [10] is Mus musculus. Description: Antinociceptive activity in ICR mouse model of chronic constriction injury-induced neuropathic pain assessed as inhibition of mechanical allodynia at 3 umol/kg, ip administered 7 days post-surgery and measured after 0.5 hrs post-dose by Von Frey assay relative to control. It counts as functional.
Data set [11] concerns Mus musculus. The data set can be described thus: Antinociceptive activity in ICR mouse model of chronic constriction injury-induced neuropathic pain assessed as inhibition of mechanical allodynia at 3 umol/kg, ip administered 7 days post-surgery and measured after 5 hrs post-dose by Von Frey assay relative to control. The data set is classed as functional.
Data set [12] deals with Mus musculus. Description: Antinociceptive activity in ICR mouse model of chronic constriction injury-induced neuropathic pain assessed as inhibition of mechanical allodynia at 3 umol/kg, ip administered 7 days post-surgery and measured after 1 hr post-dose by Von Frey assay relative to control. The data set is classed as functional.
The subject of data set [13] is Mus musculus. Description: Antinociceptive activity in ICR mouse model of chronic constriction injury-induced neuropathic pain assessed as inhibition of mechanical allodynia at 1 umol/kg, ip administered 7 days post-surgery and measured after 2 hrs post-dose by Von Frey assay relative to control. The data set is classed as functional.
Data set [14] relates to Mus musculus. Description: Antinociceptive activity in ICR mouse model of chronic constriction injury-induced neuropathic pain assessed as inhibition of mechanical allodynia at 3 umol/kg, ip administered 7 days post-surgery and measured after 3 hrs post-dose by Von Frey assay relative to control. It counts as functional.
Data set [15] deals with Mus musculus. Description: Antinociceptive activity in ip dosed ICR mouse model of chronic constriction injury-induced neuropathic pain assessed as inhibition of mechanical allodynia administered 7 days post-surgery and measured after 1 hr post-dose by Von Frey assay. It counts as functional.
In data set [16] the test system is Mus musculus. The data set can be described thus: Antinociceptive activity in ICR mouse model of chronic constriction injury-induced neuropathic pain assessed as inhibition of mechanical allodynia at 1 umol/kg, ip administered 7 days post-surgery and measured after 3 hrs post-dose by Von Frey assay relative to control. It counts as functional.
Data set [17] has as its system Mus musculus. The data set can be described thus: Antinociceptive activity in ICR mouse model of chronic constriction injury-induced neuropathic pain assessed as inhibition of mechanical allodynia at 3 umol/kg, ip administered 7 days post-surgery and measured after 2 hrs post-dose by Von Frey assay relative to control. It counts as functional.
Data set [18] concerns Mus musculus. Description: Antinociceptive activity in ICR mouse model of chronic constriction injury-induced neuropathic pain assessed as inhibition of mechanical allodynia at 1 umol/kg, ip administered 7 days post-surgery and measured after 0.5 hrs post-dose by Von Frey assay relative to control. It counts as functional.
The next data set deals with Cannabinoid receptor 2 (Rattus norvegicus, UniProt Q9QZN9). The data set can be described thus: Antagonist activity at rat brain CB2 receptor expressed in HEK-Flp-In cells in presence of [3H]CP55940 measured after overnight incubation by Bright-Glo luminescence assay. The data set is classed as cell-based.
Chain of Cannabinoid receptor 2 (Q9QZN9 whole entry, looked up): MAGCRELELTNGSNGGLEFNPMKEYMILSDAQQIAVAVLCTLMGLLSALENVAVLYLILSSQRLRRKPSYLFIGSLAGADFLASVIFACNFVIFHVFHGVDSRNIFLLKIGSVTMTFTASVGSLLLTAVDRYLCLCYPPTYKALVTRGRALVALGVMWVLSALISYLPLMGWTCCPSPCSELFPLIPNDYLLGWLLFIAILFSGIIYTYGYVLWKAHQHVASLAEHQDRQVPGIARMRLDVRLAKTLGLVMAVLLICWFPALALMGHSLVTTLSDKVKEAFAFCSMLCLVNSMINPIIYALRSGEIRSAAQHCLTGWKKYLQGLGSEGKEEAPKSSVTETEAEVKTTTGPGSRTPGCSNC
A further data set addresses Cannabinoid receptor 1 (Rattus norvegicus, UniProt P20272). The data set can be described thus: Antagonist activity at rat brain CB1 receptor expressed in HEK-Flp-In cells in presence of [3H]CP55940 measured after overnight incubation by Bright-Glo luminescence assay. The data set is classed as cell-based.

Chain of Cannabinoid receptor 1 (P20272 whole entry): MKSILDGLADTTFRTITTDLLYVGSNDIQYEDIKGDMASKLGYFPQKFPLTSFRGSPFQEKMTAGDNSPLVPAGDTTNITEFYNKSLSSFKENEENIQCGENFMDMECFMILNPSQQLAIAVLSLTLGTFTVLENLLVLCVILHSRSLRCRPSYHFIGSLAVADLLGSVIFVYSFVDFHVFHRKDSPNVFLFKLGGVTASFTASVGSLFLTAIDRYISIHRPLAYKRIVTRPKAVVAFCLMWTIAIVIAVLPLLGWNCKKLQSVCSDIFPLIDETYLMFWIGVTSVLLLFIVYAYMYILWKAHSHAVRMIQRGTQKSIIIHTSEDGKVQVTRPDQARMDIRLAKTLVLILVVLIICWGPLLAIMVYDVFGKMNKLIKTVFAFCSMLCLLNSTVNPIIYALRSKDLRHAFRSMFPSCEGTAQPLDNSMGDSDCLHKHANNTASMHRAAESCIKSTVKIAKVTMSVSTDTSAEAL

In the case of `O=C(O)c1cc(O)c2ccc(-c3ccc(C(F)(F)F)cc3)cc2c1`, the inhibition in vivo at 10 µmol/kg with Mus musculus [1] amounted to 64.2%; in the data set with Mus musculus [2], 23.4%; in the data set on Mus musculus [3], 35.2%; with Mus musculus [6], 0%; in the data set on Mus musculus [7], 59.8%. In the data set on Mus musculus [4], the Activity result is listed as “Non-Toxic”. Also, the Ratio with Mus musculus [5] is 0.34 - 0.63.

Consider `C#CCCCCN1CCC(c2ccc(-c3cc(C(=O)O)cc4cc(-c5ccc(C(F)(F)F)cc5)ccc34)cc2)CC1`, for which the inhibition in vivo at 10 µmol/kg in the data set with Mus musculus [1] is 75.9%; in the data set on Mus musculus [2], 52.4%; in the data set on Mus musculus [3], 9.6%; in the data set on Mus musculus [6], 0%; in the data set on Mus musculus [7], 42.7%. In addition, the Ratio with Mus musculus [5] is 0.13.

As to `NCCCNC(=O)c1ccc(-c2cc(C(=O)O)cc(-n3cc(-c4ccc(C(F)(F)F)cc4)nn3)c2)s1`, the inhibition in vivo at 10 µmol/kg in the data set on Mus musculus [1] was 91.5%; in the data set on Mus musculus [2], 81%; in the data set with Mus musculus [3], 30.9%; in the data set on Mus musculus [6], 10%; with Mus musculus [7] it was 74%. In addition, in the data set with Mus musculus [5], the Ratio is on record as 0.34 - 0.63.

With `O=C(O)c1cc(-c2ccc(C3CCNCC3)cc2)cc(-n2cc(-c3ccc(C(F)(F)F)cc3)nn2)c1`, the inhibition in vivo at 10 µmol/kg with Mus musculus [1] stood at 67.4%; in the data set with Mus musculus [2], 52.4%; in the data set with Mus musculus [3], 31.9%; in the data set on Mus musculus [6], 12.7%; with Mus musculus [7], 57.2%. The inhibition in vivo at 1 µmol/kg in the data set with Mus musculus [8] was found to be 18.7%; in the data set on Mus musculus [9] it was 8.7%; with Mus musculus [13], 18.7%; in the data set on Mus musculus [16], 8.7%; in the data set with Mus musculus [18], 8.7%. Moreover, the inhibition in vivo at 3 µmol/kg in the data set on Mus musculus [10] was found to be 44.6%; in the data set with Mus musculus [11], 0%; in the data set on Mus musculus [12] it was 53.3%; with Mus musculus [14] it was 35.6%; in the data set on Mus musculus [17], 44.6%. Besides, the ED50 with Mus musculus [15] came out at 3.5 µmol/kg.

Take `O=C(O)c1cc(-c2ccc(C3CCNCC3)cc2)cc(-c2cn(-c3ccc(C(F)(F)F)cc3)nn2)c1`: the inhibition in vivo at 10 µmol/kg came out at 86.8% in the data set with Mus musculus [1]; 70.7% with Mus musculus [2]; 55.1% in the data set on Mus musculus [3]; 6.7% in the data set with Mus musculus [6]; 71.4% with Mus musculus [7]. For the same compound, the Activity result in the data set on Mus musculus [4] is “Non-Toxic”. In addition, the Ratio in the data set with Mus musculus [5] is 0.34 - 0.63.

For the compound `CC(=O)N1CCC(c2ccc(-c3cc(C(=O)O)cc4cc(-c5ccc(C(F)(F)F)cc5)ccc34)cc2)CC1`, in the data set on Mus musculus [4], the Activity result was “Non-Toxic”.

As for `CCC(=O)N1CCC(c2ccc(-c3cc(C(=O)O)cc4cc(-c5ccc(C(F)(F)F)cc5)ccc34)cc2)CC1`, the inhibition in vivo at 10 µmol/kg with Mus musculus [1] was determined as 77.2%; in the data set with Mus musculus [2], 32.9%; with Mus musculus [3], 55.7%; in the data set with Mus musculus [6] it was 5.6%; with Mus musculus [7], 71.6%. Further, the Ratio with Mus musculus [5] is given as 0.72 - 0.92.

`O=C(O)c1cc(-c2ccc(C3CCNCC3)cc2)c2ccc(-c3ccc(C(F)(F)F)cc3)cc2c1` [PPTN]: the inhibition in vivo at 10 µmol/kg with Mus musculus [1] was determined as 100%; with Mus musculus [2], 87.9%; with Mus musculus [3], 78.6%; with Mus musculus [6] it was 21.3%; in the data set on Mus musculus [7], 96.4%. For the same compound, the inhibition in vivo at 1 µmol/kg in the data set on Mus musculus [8] amounted to 19.9%; in the data set on Mus musculus [9], 4.7%; with Mus musculus [13] it was 10%; with Mus musculus [16], 4.7%; in the data set on Mus musculus [18], 10%. The inhibition in vivo at 3 µmol/kg with Mus musculus [10] was 62.9%; in the data set with Mus musculus [11] it was 8.7%; in the data set on Mus musculus [12], 79.3%; with Mus musculus [14], 64.7%; in the data set with Mus musculus [17] it was 76.9%. The ED50 with Mus musculus [15] was determined as 1.6 µmol/kg. Also, the IC50 at Cannabinoid receptor 2 and at Cannabinoid receptor 1 was > 50 µM in each case. Further, the Activity entry with Mus musculus [4] is “Non-Toxic”.

As a reminder, the inhibition in vivo is the relative decrease from the control value, in per cent. The ED50 is the dose that gives a 50% effect, or the effect in half of the subjects. What is called IC50 is the point on the concentration scale where inhibition reaches its midpoint.

The values above are taken from ChEMBL document CHEMBL4616709, “P2Y14 Receptor Antagonists Reverse Chronic Neuropathic Pain in a Mouse Model” (ACS Med Chem Lett, 2020).
